Molecules are shown by their SMILES. Starred links: 1 amine or outer side, 2 acyl side, 3 side chain; linkers in the order of their positions; H or OH if unused. Non-standard residues stand in square brackets, D forms with d. Residues, ends and D or L forms follow the SMILES beside them. Groups on a side chain read outwards from the residue. *: point of attachment. C18 diacid = O=C(O)CCCCCCCCCCCCCCCCC(=O)*; γGlu = O=C(O)[C@H](CCC(=O)[*:2])N[*:1]; AEEA = NCCOCCOCC(=O)O; Aib = CC(C)(N)C(=O)O

The target of the assay is T1, human GLP-1 receptor (Homo sapiens, UniProt P43220).
T1 construct: expressed in transfected cells; host or cells: membranes of BHK cells (parent BHKTS13), clone FCW467-12A
T1 sequence (P43220 24-463): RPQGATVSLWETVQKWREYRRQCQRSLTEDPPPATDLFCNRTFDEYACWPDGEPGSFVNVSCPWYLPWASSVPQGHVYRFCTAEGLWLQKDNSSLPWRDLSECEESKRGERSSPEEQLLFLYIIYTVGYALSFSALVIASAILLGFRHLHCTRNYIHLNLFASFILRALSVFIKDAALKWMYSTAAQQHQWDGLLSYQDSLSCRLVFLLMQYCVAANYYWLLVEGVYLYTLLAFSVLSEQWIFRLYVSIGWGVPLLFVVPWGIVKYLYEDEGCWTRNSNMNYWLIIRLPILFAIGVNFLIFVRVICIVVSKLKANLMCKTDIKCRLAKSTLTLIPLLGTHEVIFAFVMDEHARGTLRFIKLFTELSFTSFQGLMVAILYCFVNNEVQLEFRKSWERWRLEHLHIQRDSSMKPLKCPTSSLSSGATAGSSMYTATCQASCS
The assay is described as follows: Assay (I)(a) GLP-1 receptor activation, CRE luciferase reporter gene assay in BHK cells. It is filed as cell-based. The conditions noted are these: without presence of serum albumin; read-out: GLP-1R EC50 (pM) [Assay (I)(a)]. The essentials: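 Stable BHK clone expressing human GLP-1 receptor with CRE-driven firefly luciferase, 5×10EE3 cells/well in medium with 2% ovalbumin and 0.2% Pluronic F-68. Compounds at 1×10EE-13 to 1×10EE-6 M final, 3 h at 37° C.; luminescence read, EC50 (pM) from four-parameter fit.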
(A reporter such as luciferase makes a cellular process visible.)

For the compound `CC[C@H](C)[C@H](NC(=O)[C@H](CC(C)C)NC(=O)[C@H](Cc1c[nH]c2ccccc12)NC(=O)[C@H](CCCCNC(=O)COCCOCCNC(=O)COCCOCCNC(=O)CC[C@H](NC(=O)CC[C@H](NC(=O)CC[C@H](NC(=O)CCCCCCCCCCCCCCCCC(=O)O)C(=O)O)C(=O)O)C(=O)O)NC(=O)[C@@H](NC(=O)[C@H](Cc1ccccc1)NC(=O)[C@H](CCC(=O)O)NC(=O)[C@H](CCCNC(=N)N)NC(=O)[C@H](C)NC(=O)[C@H](CCCNC(=N)N)NC(=O)[C@H](CCCNC(=N)N)NC(=O)[C@H](C)NC(=O)[C@H](CC(=O)O)NC(=O)[C@H](CC(C)C)NC(=O)[C@H](Cc1ccc(O)cc1)NC(=O)[C@H](CCCCN)NC(=O)[C@H](CO)NC(=O)[C@H](Cc1ccc(O)cc1)NC(=O)[C@H](CC(=O)O)NC(=O)[C@H](CO)NC(=O)[C@@H](NC(=O)[C@H](Cc1ccccc1)NC(=O)[C@@H](NC(=O)CNC(=O)[C@H](CCC(N)=O)NC(=O)C(C)(C)NC(=O)[C@@H](N)Cc1c[nH]cn1)[C@@H](C)O)[C@@H](C)O)C(C)C)C(=O)N[C@@H](CO)C(=O)N[C@H](C(N)=O)[C@@H](C)O` [Chem. 4, N^ε24-[2-[2-[2-[[2-[2-[2-[[(4S)-4-carboxy-4-[[(4S)-4-carboxy-4-[[(4S)-4-carboxy-4-(17-carboxyheptadecanoylamino)butanoyl]amino]butanoyl]amino]butanoyl]amino]ethoxy]ethoxy]acetyl]amino]ethoxy]ethoxy]acetyl]-[Aib2,Ala16,Arg20,Glu21,Lys24,Ile27,Ser28]-Glucagon amide] (H-H[Aib]QGTFTSDYSKYLDARRAREFVK([AEEA-AEEA-γGlu-γGlu-γGlu-C18 diacid])WLIST-NH2; N-terminus assumed), the 50% effective concentration (EC50) is 3 pM.
The value for `CC[C@H](C)[C@H](NC(=O)[C@H](CC(C)C)NC(=O)[C@H](Cc1c[nH]c2ccccc12)NC(=O)[C@H](CCC(N)=O)NC(=O)[C@@H](NC(=O)[C@H](Cc1ccccc1)NC(=O)[C@H](CC(=O)O)NC(=O)[C@H](CCC(N)=O)NC(=O)[C@H](C)NC(=O)[C@H](CCCNC(=N)N)NC(=O)[C@H](CCCNC(=N)N)NC(=O)[C@H](C)NC(=O)[C@H](CC(=O)O)NC(=O)[C@H](CC(C)C)NC(=O)[C@H](Cc1ccc(O)cc1)NC(=O)[C@H](CCCCN)NC(=O)[C@H](CO)NC(=O)[C@H](CC(C)C)NC(=O)[C@H](CC(=O)O)NC(=O)[C@H](CO)NC(=O)[C@@H](NC(=O)[C@H](Cc1ccccc1)NC(=O)[C@@H](NC(=O)CNC(=O)[C@H](CCC(N)=O)NC(=O)C(C)(C)NC(=O)[C@@H](N)Cc1c[nH]cn1)[C@@H](C)O)[C@@H](C)O)C(C)C)C(=O)N[C@@H](CCCCNC(=O)COCCOCCNC(=O)COCCOCCNC(=O)CC[C@H](NC(=O)CC[C@H](NC(=O)CC[C@H](NC(=O)CCCCCCCCCCCCCCCCC(=O)O)C(=O)O)C(=O)O)C(=O)O)C(=O)N[C@H](C(N)=O)[C@@H](C)O` [Chem. 7, N^ε28-[2-[2-[2-[[2-[2-[2-[[(4S)-4-carboxy-4-[[(4S)-4-carboxy-4-[[(4S)-4-carboxy-4-(17-carboxyheptadecanoylamino)butanoyl]amino]butanoyl]amino]butanoyl]amino]ethoxy]ethoxy]acetyl]amino]ethoxy]ethoxy]acetyl]-[Aib2,Leu10,Ala16,Ile27,Lys28]-Glucagon amide] (H-H[Aib]QGTFTSDLSKYLDARRAQDFVQWLIK([AEEA-AEEA-γGlu-γGlu-γGlu-C18 diacid])T-NH2; N-terminus assumed) was 2 pM.

As usually defined, the EC50 is the midpoint of the concentration-response curve.
